{
  "source": "ChEMBL document CHEMBL5038669",
  "about": "“Development of the First Covalent Monopolar Spindle Kinase 1 (MPS1/TTK) Inhibitor” (J Med Chem, 2022)",
  "key": {"[1]": {"test_system": "Hep 3B2", "test": "Induction of apoptosis in human Hep3B cells assessed as increase in cleaved caspase-3 level at 200 nM measured upto 5 days by Western blot analysis", "assay_type": "functional, cell-based", "conditions": "time day <=5"}, "[2]": {"test_system": "Huh-7", "test": "Induction of cell senescence in human Huh-7 cells at 200 uM measured up to 5 days by SA-beta-gal-staining based assay", "assay_type": "functional", "conditions": "time day <=5"}, "[3]": {"test_system": "Hep 3B2", "test": "Induction of cell senescence in human Hep3B cells at 200 uM measured up to 5 days by SA-beta-gal-staining based assay", "assay_type": "functional", "conditions": "time day <=5"}, "[4]": {"test_system": "SNU-387", "test": "Induction of cell senescence in human SNU-387 cells at 200 uM measured up to 5 days by SA-beta-gal-staining based assay", "assay_type": "functional", "conditions": "time day <=5"}, "[5]": {"test_system": "Hep 3B2", "test": "Synergistic antiproliferative activity against human Hep3B cells at 200 nM measured after 5 days in presence of navitoclax by crystal violet staining based assay", "assay_type": "functional, cell-based", "conditions": "time 5.0 day"}, "[6]": {"test_system": "SNU-387", "test": "Synergistic antiproliferative activity against human SNU-387 cells at 200 nM measured after 5 days in presence of navitoclax by crystal violet staining based assay", "assay_type": "functional, cell-based", "conditions": "time 5.0 day"}, "[7]": {"target": "T1, Dual specificity protein kinase TTK (Homo sapiens, UniProt P33981)", "T1 sequence (P33981 whole entry)": "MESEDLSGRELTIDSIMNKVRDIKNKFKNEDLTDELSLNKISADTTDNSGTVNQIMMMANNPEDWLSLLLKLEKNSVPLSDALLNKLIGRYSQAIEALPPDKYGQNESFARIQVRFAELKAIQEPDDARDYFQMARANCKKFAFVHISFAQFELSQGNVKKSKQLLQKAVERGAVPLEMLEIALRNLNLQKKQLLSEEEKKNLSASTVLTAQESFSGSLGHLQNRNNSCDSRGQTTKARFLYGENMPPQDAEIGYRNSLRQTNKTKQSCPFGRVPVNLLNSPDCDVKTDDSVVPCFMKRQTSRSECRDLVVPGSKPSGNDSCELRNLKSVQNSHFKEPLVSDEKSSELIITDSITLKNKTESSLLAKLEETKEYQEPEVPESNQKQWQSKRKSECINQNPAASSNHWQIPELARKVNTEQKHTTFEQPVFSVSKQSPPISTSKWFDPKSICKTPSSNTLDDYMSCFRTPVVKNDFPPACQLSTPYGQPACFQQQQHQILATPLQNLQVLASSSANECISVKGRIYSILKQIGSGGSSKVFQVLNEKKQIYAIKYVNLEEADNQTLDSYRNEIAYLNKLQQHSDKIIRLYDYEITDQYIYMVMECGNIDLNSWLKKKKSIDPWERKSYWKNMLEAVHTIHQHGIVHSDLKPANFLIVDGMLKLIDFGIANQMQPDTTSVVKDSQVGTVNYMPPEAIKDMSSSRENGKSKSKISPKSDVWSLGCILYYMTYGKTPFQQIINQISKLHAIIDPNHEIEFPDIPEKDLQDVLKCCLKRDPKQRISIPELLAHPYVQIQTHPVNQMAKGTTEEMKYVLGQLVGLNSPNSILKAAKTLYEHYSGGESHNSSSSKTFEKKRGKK", "test": "Inhibition of recombinant human full length N-terminal GST-fused MPS1 (1 to 857 residues) using histone H3 as substrate by TR-FRET assay"}, "[8]": {"target": "T2, Dual specificity protein kinase TTK (Homo sapiens) (UniProt P33981)", "T2 sequence (whole entry)": "T1 sequence (P33981 whole entry)", "test": "Displacement of tracer K9 from NanoLuc-fused MPS1 (unknown origin) expressed in HEK293T cells at 10 fold IC50 preincubated for 2 hrs followed by compound washout by NanoBRET assay", "assay_type": "cell-based"}, "[9]": {"test_system": "COLO 205", "test": "Antiproliferative activity against human COLO 205 cells", "assay_type": "functional, cell-based"}, "[10]": {"test_system": "HT-29", "test": "Antiproliferative activity against human HT-29 cells", "assay_type": "functional, cell-based"}, "[11]": {"test_system": "HCC 2998", "test": "Antiproliferative activity against human HCC 2998 cells", "assay_type": "functional, cell-based"}, "[12]": {"test_system": "KM12", "test": "Antiproliferative activity against human KM12 cells", "assay_type": "functional, cell-based"}, "[13]": {"test_system": "HCT-15", "test": "Antiproliferative activity against human HCT-15 cells", "assay_type": "functional, cell-based"}, "[14]": {"test_system": "HCT-116", "test": "Antiproliferative activity against human HCT-116 cells", "assay_type": "functional, cell-based"}, "[15]": {"test_system": "SNU-387", "test": "Antiproliferative activity against human SNU-387 cells incubated for 5 days by XTT assay", "assay_type": "functional, cell-based", "conditions": "time 5.0 day"}, "[16]": {"test_system": "SK-HEP1", "test": "Antiproliferative activity against human SK-HEP1 cells incubated for 5 days by XTT assay", "assay_type": "functional, cell-based", "conditions": "time 5.0 day"}, "[17]": {"test_system": "Hep 3B2", "test": "Antiproliferative activity against human Hep3B cells incubated for 5 days by XTT assay", "assay_type": "functional, cell-based", "conditions": "time 5.0 day"}, "[18]": {"test_system": "HuH-6", "test": "Antiproliferative activity against human HuH-6 cells incubated for 5 days by XTT assay", "assay_type": "functional, cell-based", "conditions": "time 5.0 day"}, "[19]": {"test_system": "Huh-7", "test": "Antiproliferative activity against human Huh-7 cells incubated for 5 days by XTT assay", "assay_type": "functional, cell-based", "conditions": "time 5.0 day"}, "[20]": {"test_system": "PLC-PRF-5", "test": "Antiproliferative activity against human Alex cells incubated for 5 days by XTT assay", "assay_type": "functional, cell-based", "conditions": "time 5.0 day"}, "[21]": {"test_system": "HLE", "test": "Antiproliferative activity against human HLE cells incubated for 5 days by XTT assay", "assay_type": "functional, cell-based", "conditions": "time 5.0 day"}, "[22]": {"test_system": "HLF", "test": "Antiproliferative activity against human HLF cells incubated for 5 days by XTT assay", "assay_type": "functional, cell-based", "conditions": "time 5.0 day"}, "[23]": {"test_system": "Huh-7", "test": "Induction of apoptosis in human Huh-7 cells assessed as increase in p21 expression level at 200 nM measured upto 5 days by Western blot analysis", "assay_type": "functional, cell-based", "conditions": "time day <=5"}, "[24]": {"test_system": "Hep 3B2", "test": "Induction of apoptosis in human Hep3B cells assessed as increase in p21 expression level at 200 nM measured upto 5 days by Western blot analysis", "assay_type": "functional, cell-based", "conditions": "time day <=5"}, "[25]": {"test_system": "SNU-387", "test": "Induction of apoptosis in human SNU-387 cells assessed as increase in p21 expression level at 200 nM measured upto 5 days by Western blot analysis", "assay_type": "functional, cell-based", "conditions": "time day <=5"}, "[26]": {"test_system": "Huh-7", "test": "Induction of apoptosis in human Huh-7 cells assessed as increase in phospho-gammaH2A.X expression level at 200 nM measured upto 5 days by Western blot analysis", "assay_type": "functional, cell-based", "conditions": "time day <=5"}, "[27]": {"test_system": "Hep 3B2", "test": "Induction of apoptosis in human Hep3B cells assessed as increase in phospho-gammaH2A.X expression level at 200 nM measured upto 5 days by Western blot analysis", "assay_type": "functional, cell-based", "conditions": "time day <=5"}, "[28]": {"test_system": "SNU-387", "test": "Induction of apoptosis in human SNU-387 cells assessed as increase in phospho-gammaH2A.X expression level at 200 nM measured upto 5 days by Western blot analysis", "assay_type": "functional, cell-based", "conditions": "time day <=5"}, "[29]": {"target": "T3, Serine/threonine-protein kinase 17B (Homo sapiens) (UniProt O94768)", "T3 sequence (whole entry)": "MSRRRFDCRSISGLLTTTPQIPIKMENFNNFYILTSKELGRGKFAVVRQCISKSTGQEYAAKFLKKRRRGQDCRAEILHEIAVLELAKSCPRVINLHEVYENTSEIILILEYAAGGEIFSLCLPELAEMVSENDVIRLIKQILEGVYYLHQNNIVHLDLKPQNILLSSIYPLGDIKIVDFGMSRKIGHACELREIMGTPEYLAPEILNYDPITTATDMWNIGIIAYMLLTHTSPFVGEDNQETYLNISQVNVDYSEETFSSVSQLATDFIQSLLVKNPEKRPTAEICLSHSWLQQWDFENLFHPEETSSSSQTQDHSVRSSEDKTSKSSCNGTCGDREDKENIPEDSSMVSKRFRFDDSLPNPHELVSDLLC", "conditions": "dose 10.0 µM"}},
  "note": "Activity calls are given as the source filed them. The calls are words filed in the database; no cut-off is given here.",
  "data": [
    {"smiles": "C=CC(=O)Nc1cc(N2CCN(C)CC2)ccc1Nc1ncc2c(n1)-n1ccc(C(=O)Nc3c(CC)cccc3CC)c1CC2", "values": [
      {"measurement": "Activity", "setting": "[1]", "value": "Active"},
      {"measurement": "Activity", "setting": "[2]", "value": "Active"},
      {"measurement": "Activity", "setting": "[3]", "value": "Active"},
      {"measurement": "Activity", "setting": "[4]", "value": "Active"},
      {"measurement": "Activity", "setting": "[5]", "value": "Active"},
      {"measurement": "Activity", "setting": "[6]", "value": "Active"},
      {"measurement": "IC50", "setting": "[7]", "value": 13, "unit": "nM"},
      {"measurement": "Ki", "setting": "[7]", "value": 0.83, "unit": "nM"},
      {"measurement": "Activity", "setting": "[8]", "value": 50, "unit": "%"},
      {"measurement": "Activity", "setting": "[9]", "value": "Active"},
      {"measurement": "Activity", "setting": "[10]", "value": "Active"},
      {"measurement": "Activity", "setting": "[11]", "value": "Active"},
      {"measurement": "Activity", "setting": "[12]", "value": "Active"},
      {"measurement": "Activity", "setting": "[13]", "value": "Active"},
      {"measurement": "Activity", "setting": "[14]", "value": "Active"},
      {"measurement": "Activity", "setting": "[15]", "value": "Active"},
      {"measurement": "Activity", "setting": "[16]", "value": "Active"},
      {"measurement": "Activity", "setting": "[17]", "value": "Active"},
      {"measurement": "Activity", "setting": "[18]", "value": "Active"},
      {"measurement": "Activity", "setting": "[19]", "value": "Active"},
      {"measurement": "Activity", "setting": "[20]", "value": "Active"},
      {"measurement": "Activity", "setting": "[21]", "value": "Active"},
      {"measurement": "Activity", "setting": "[22]", "value": "Active"},
      {"measurement": "Activity", "setting": "[23]", "value": "Active"},
      {"measurement": "Activity", "setting": "[24]", "value": "Active"},
      {"measurement": "Activity", "setting": "[25]", "value": "Active"},
      {"measurement": "Activity", "setting": "[26]", "value": "Active"},
      {"measurement": "Activity", "setting": "[27]", "value": "Active"},
      {"measurement": "Activity", "setting": "[28]", "value": "Active"},
      {"measurement": "ΔTm", "setting": "[29]", "value": 11.9, "unit": "°C"}
    ]}
  ]
}
